From patent US12269797B2, “Bifunctional linker for bisconjugation, method of synthesis, and method of use” (priority 2020, dated 2025)

Experiment: Solubility of the bifunctional linker in solvents
Type: physicochemical

solubility (in DMSO or methanol): soluble
solubility (in hexanes or water): limited solubility
Structure (SMILES): C#CCOC(=O)c1ccc(C=O)c(C=O)c1 [Ib, Prop-2-yn-1-yl 3,4-diformylbenzoate]
